In patent US20130245006A1, “NOVEL INDOLIZINE DERIVATIVES, AND PREPARATION AND THERAPEUTIC USE THEREOF” (SANOFI, priority 2010, published 2013):
≈ marks a conversion by molar mass, not a printed value. Counter-ions that a name gives are not always drawn.

Experiment: Solubility by HPLC relative to a reference sample
Type: physicochemical
Details: aqueous buffer, phosphate buffer, at the pH given
Experimental: The evaluation of the solubility of the compounds of the invention is carried out at pH 4 (using a phosphate buffer, […]) by HPLC using an H2O/CH3CN/CH3SO3H gradient, relative to a reference sample (a dilute solution of the product to be evaluated which serves as an internal control). The solubility S results are expressed in mg/ml. Generally, the compounds of the present invention have a solubility S≧4 mg/ml at pH≧4. Among them, mention may be made of the solubilities of the following compounds in the table below: […]

| SMILES | solubility [µg/mL] |
| --- | --- |
| CCCCc1cc2cc(C(=O)N(CC(=O)OC)C(C)C)ccn2c1C(=O)c1ccc(CCCN(CCCC)CCCC)cc1 [compound 28, ({2-Butyl-3-[4-(3-dibutylamino-propyl)benzoyl]indolizine-7-carbonyl}isopropyl-amino)acetic acid methyl ester] | 2420 (≈ 4.01 mM) |
| CCCCN(CCCC)CCCc1ccc(C(=O)c2c(CC)cc3cc(C(=O)N(CC)CC(=O)OC(C)C)ccn23)cc1 [compound 58, ({3-[4-(3-Dibutylamino-propyl)benzoyl]-2-ethylindolizine-7-carbonyl}ethyl-amino)acetic acid isopropyl ester] | 6300 (≈ 10.7 mM) |
| CCCCc1cc2cc(C(=O)N(CC)Cc3nnn(C)n3)ccn2c1C(=O)c1ccc(CCCN(CCCC)CCCC)cc1 [Compound No. 9, 2-Butyl-3-[4-(3-dibutylaminopropyl)benzoyl]indolizine-7-carboxylic acid ethyl(2-methyl-2H-tetrazol-5-ylmethyl)amide] | 7220 (≈ 11.8 mM) |
| CCc1cc2cc(C(=O)N(CC(=O)OC)C(C)C)ccn2c1C(=O)c1ccc(CCC(C)(C)NC2CCCC2)cc1 [Compound No. 19, ({3-[4-(3-Cyclopentylamino-3-methylbutyl)benzoyl]-2-ethylindolizine-7-carbonyl}isopropylamino)acetic acid methyl ester] | 7200 (≈ 12.9 mM) |
| CCCCc1cc2cc(C(=O)N(CC(=O)OC(C)C)C(C)C)ccn2c1C(=O)c1ccc(CCCN(CCCC)CCCC)cc1 [compound 59, ({2-Butyl-3-[4-(3-dibutylaminopropyl)-benzoyl]indolizine-7-carbonyl}-isopropylamino)acetic acid isopropyl ester] | 5700 (≈ 9.02 mM) |
| CCc1cc2cc(C(=O)N(CC(=O)OC)C(C)C)ccn2c1C(=O)c1ccc(CCCN(CC)C(C)C)cc1 [compound 55, [(2-Ethyl-3-{4-[3-(ethylisopropylamino)propyl]benzoyl}indolizine-7-carbonyl)isopropylamino]acetic acid methyl ester] | 8820 (≈ 16.5 mM) |
| CCCCc1cc2cc(C(=O)N(CC)Cc3nc(C)no3)ccn2c1C(=O)c1ccc(CCCN(CCCC)CCCC)cc1 [Compound No. 10, 2-Butyl-3-[4-(3-dibutylaminopropyl)benzoyl]indolizine-7-carboxylic acid ethyl(3-methyl-[1,2,4]oxadiazol-5-ylmethyl)amide] | 4980 (≈ 8.11 mM) |
| CCc1cc2cc(C(=O)N3CCC[C@@]3(C)C(=O)OC)ccn2c1C(=O)c1ccc(CCCNC(C)(C)C)cc1 [compound 50, (S)-1-{3-[4-(3-tert-Butylaminopropyl)benzoyl]-2-ethylindolizine-7-carbonyl}-2-methylpyrrolidine-2-carboxylic acid methyl ester] | 8980 (≈ 16.9 mM) |
| CCCCc1cc2cc(C(=O)N(CC(=O)O)C(C)C)ccn2c1C(=O)c1ccc(CCCN(CC)CC)cc1 [compound 75, ({2-Butyl-3-[4-(3-diethylamino-propyl)benzoyl]indolizine-7-carbonyl}isopropylamino)acetic acid] | 8400 (≈ 15.7 mM) |
| CCCCc1cc2cc(C(=O)N(CC)CC(=O)OC)ccn2c1C(=O)c1ccc(CCCN(CCCC)CCCC)cc1 [Compound No. 5, ({2-Butyl-3-[4-(3-dibutylaminopropyl)benzoyl]indolizine-7-carbonyl}ethylamino)acetic acid methyl ester] | 5900 (≈ 10 mM) |
| CCCCc1cc2cc(C(=O)N(CC)Cc3nnn[nH]3)ccn2c1C(=O)c1ccc(CCCN(CCCC)CCCC)cc1 [Compound No. 11, 2-Butyl-3-[4-(3-dibutylaminopropyl)benzoyl]indolizine-7-carboxylic acid ethyl(1H-tetrazole-5-ylmethyl)amide] | 240 (≈ 0.4 mM) |
| CCc1cc2cc(C(=O)N(CC(=O)O)C(C)C)ccn2c1C(=O)c1ccc(CCCNC(C)(C)C)cc1 [compound 76, ({3-[4-(3-tert-Butylamino-propyl)benzoyl]-2-ethylindolizine-7-carbonyl}isopropylamino)acetic acid] | 6200 (≈ 12.3 mM) |
| CCCCc1cc2cc(C(=O)N(CC(=O)OC)C(C)C)ccn2c1C(=O)c1ccc(CCCN(CC)CCCC)cc1 [compound 62, [(2-Butyl-3-{4-[3-(butylethylamino)propyl]benzoyl}indolizine-7-carbonyl)isopropylamino]acetic acid methyl ester] | 5300 (≈ 9.2 mM) |
| CCc1cc2cc(C(=O)N(CC(=O)OC)C(C)C)ccn2c1C(=O)c1ccc(CCCC2(NC)CCCC2)cc1 [Compound No. 16, [(2-Ethyl-3-(4-[3-(1-methylaminocyclopentyl)propyl]benzoyl}indolizine-7-carbonyl)isopropylamino]acetic acid methyl ester] | 630 (≈ 1.15 mM) |
| CCCCc1cc2cc(C(=O)N(CC)CC(=O)OCC)ccn2c1C(=O)c1ccc(CCCN(CCCC)CCCC)cc1 [compound 26, ({2-Butyl-3-[4-(3-dibutylamino-propyl)benzoyl]indolizine-7-carbonyl}ethylamino)acetic acid ethyl ester] | 1140 (≈ 1.89 mM) |
| CCCCc1cc2cc(C(=O)N(CC)[C@@H](C)C(=O)OC)ccn2c1C(=O)c1ccc(CCCN(CCCC)CCCC)cc1 (stereo in doubt) [compound 69, (S)-2-({2-Butyl-3-[4-(3-dibutylaminopropyl)benzoyl]indolizine-7-carbonyl}ethyl-amino)propionic acid methyl ester] | 5720 (≈ 9.47 mM) |
| CCCCc1cc2cc(C(=O)N(CC)CC(=O)O)ccn2c1C(=O)c1ccc(CCCN(CCCC)CCCC)cc1 [Compound No. 6, ({2-Butyl-3-[4-(3-dibutylaminopropyl)benzoyl]indolizine-7-carbonyl}ethylamino)acetic acid] | 4900 (≈ 8.51 mM) |
| CCCCc1cc2cc(C(=O)N(CC)CCOC(C)C)ccn2c1C(=O)c1ccc(CCCN(CCCC)CCCC)cc1 [compound 23, 2-Butyl-3-[4-(3-dibutylaminopropyl)benzoyl]indolizine-7-carboxylic acid ethyl(2-isopropoxyethyl)amide] | 6170 (≈ 10.2 mM) |
| CCc1cc2cc(C(=O)N(CC(=O)OC)C(C)C)ccn2c1C(=O)c1ccc(CCCNC(C)(C)C)cc1 [compound 31, ({3-[4-(3-tert-Butylaminopropyl)benzoyl]-2-ethylindolizine-7-carbonyl}isopropylamino)acetic acid methyl ester] | 2800 (≈ 5.39 mM) |
| CCCCc1cc2cc(C(=O)N(CC)Cc3nc(C)no3)ccn2c1C(=O)c1ccc(C2CCNCC2)cc1 [compound 80, 2-Butyl-3-(4-piperidin-4-ylbenzoyl)indolizine-7-carboxylic acid ethyl(3-methyl-[1,2,4]oxadizol-5-ylmethyl)amide] | 4200 (≈ 7.96 mM) |
| CCc1cc2cc(C(=O)N(CC)Cc3nnn(C)n3)ccn2c1C(=O)c1ccc(CCC(C)(C)NC(C)(C)C)cc1 [Compound No. 18, 3-[4-(3-tert-Butylamino-3-methylbutyl)benzoyl]-2-ethylindolizine-7-carboxylic acid ethyl(2-methyl-2H-tetrazol-5-ylmethyl)amide] | 7880 (≈ 14.1 mM) |
| CCc1cc2cc(C(=O)N(CC(=O)OC)C(C)C)ccn2c1C(=O)c1ccc(CCCC2(NC(C)C)CCCC2)cc1 [compound 79, [(2-Ethyl-3-{4-[3-(1-isopropylamino-cyclopentyl)propyl]benzoyl}indolizine-7-carbonyl)isopropylamino]acetic acid methyl ester] | 8020 (≈ 14 mM) |
| CCCCc1cc2cc(C(=O)N(CC)CCC(=O)O)ccn2c1C(=O)c1ccc(CCCN(CCCC)CCCC)cc1 [Compound No. 7, 3-({2-Butyl-3-[4-(3-dibutylaminopropyl)benzoyl]indolizine-7-carbonyl}ethylamino)propionic acid] | 7200 (≈ 12.2 mM) |
| CCc1cc2cc(C(=O)N(CC(=O)OC)C(C)C)ccn2c1C(=O)c1ccc(CCCNC2CCCC2)cc1 [Compound No. 8, ({3-[4-(3-Cyclopentylaminopropyl)benzoyl]-2-ethylindolizine-7-carbonyl}isopropylamino)acetic acid methyl ester] | 4900 (≈ 9.22 mM) |
| CCc1cc2cc(C(=O)N(CC)Cc3nnn(C)n3)ccn2c1C(=O)c1ccc(CCCNC(C)(C)C)cc1 [Compound No. 17, 3-[4-(3-tert-Butylaminopropyl)benzoyl]-2-ethylindolizine-7-carboxylic acid ethyl(2-methyl-2H-tetrazol-5-ylmethyl)amide] | 8230 (≈ 15.5 mM) |
| CCCN(CCC)CCCc1ccc(C(=O)c2c(CC)cc3cc(C(=O)N(CC(=O)OC)C(C)C)ccn23)cc1 [compound 61, ({3-[4-(3-Dipropylamino-propyl)benzoyl]-2-ethylindolizine-7-carbonyl}isopropylamino)acetic acid methyl ester] | 8930 (≈ 16.3 mM) |
| CCCCc1cc2cc(C(=O)N3CCC[C@H]3C(=O)OC)ccn2c1C(=O)c1ccc(CCCN(CCCC)CCCC)cc1 [Compound No. 2, (S)-1-{2-Butyl-3-[4-(3-dibutylamino-propyl)benzoyl]indolizine-7-carbonyl}-pyrrolidine-2-carboxylic acid methyl ester] | 6300 (≈ 10.5 mM) |
| CCc1cc2cc(C(=O)N(CC(=O)OC)C(C)C)ccn2c1C(=O)c1ccc(CCCNC2CCCCC2)cc1 [compound 35, ({3-[4-(3-Cyclohexylaminopropyl)benzoyl]-2-ethylindolizine-7-carbonyl}isopropylamino)acetic acid methyl ester] | 1570 (≈ 2.88 mM) |
| CCCCN(CCCC)CCCc1ccc(C(=O)c2ccc3cc(C(=O)N(CC(=O)OC)C(C)C)ccn23)cc1 [compound 56, ({3-[4-(3-Dibutylamino-propyl)benzoyl]indolizine-7-carbonyl}isopropyl-amino)acetic acid methyl ester] | 8300 (≈ 15.2 mM) |

Experiment: not given
Details: not given

| SMILES | melting point [°C] |
| --- | --- |
| CCN[C@@H](CCc1ccc(C(=O)c2c(CC)cc3cc(C(=O)N(CC)Cc4nnn(C)n4)ccn23)cc1)C(C)C (as salt: hydrochloride) [Compound No. 20, 2-Ethyl-3-[4-((S)-3-ethylamino-4-methylpentyl)benzoyl]indolizine-7-carboxylic acid ethyl(2-methyl-2H-tetrazol-5-ylmethyl)amide] | 100 |
